According to article PMC4019636, “Rational Design of Berberine-Based FtsZ Inhibitors with Broad-Spectrum Antibacterial Activity” (PLoS ONE, 2014):
Read-outs that look alike come from different tables or passages of the source.

How the values were obtained:
S. aureus FtsZ = target: T1, S. aureus FtsZ (Staphylococcus aureus, UniProt P0A031); experiment: GTPase activity assay; assay type: biochemical; details: for GTPase activity of S. aureus FtsZ: 0.44 in its absence
T1 construct: made in house; host or cells: E. coli BL21(DE3)
T1 sequence (P0A031 1-390): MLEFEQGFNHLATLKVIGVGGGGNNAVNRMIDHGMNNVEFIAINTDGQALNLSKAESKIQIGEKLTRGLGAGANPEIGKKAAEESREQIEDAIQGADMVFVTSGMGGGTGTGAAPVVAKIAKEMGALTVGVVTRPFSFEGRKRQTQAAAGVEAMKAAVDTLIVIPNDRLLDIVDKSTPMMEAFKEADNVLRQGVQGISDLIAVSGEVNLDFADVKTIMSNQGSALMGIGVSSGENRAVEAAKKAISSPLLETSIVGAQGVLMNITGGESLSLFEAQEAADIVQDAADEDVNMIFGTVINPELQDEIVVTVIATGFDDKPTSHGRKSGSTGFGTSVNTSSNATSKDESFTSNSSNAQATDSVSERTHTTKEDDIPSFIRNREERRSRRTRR
Method: E. coli BL21(DE3) cells were transformed with the pRSET-A-S vector carrying S. aureus FtsZ with a 6-histidine tag attached at its N-terminus under the control of a T7 promoter. […] When the OD600 reached 0.8, protein expression was induced with 0.4 mM isopropyl-β-D-thiogalactopyranoside (IPTG) for 4 h. Cells were harvested by centrifugation at 9000 rpm for 20 min at 4°C. The cell pellet was resuspended in 20 mL of solubilization buffer (50 mM Tris-HCl, 150 mM NaCl, 1 mM PMSF and 1 mM EDTA, pH 7.4) and then lysed with 1 mg/mL of lysozyme. The mixture was incubated for 1 h on ice. The cells were disrupted by sonication and the crude lysate obtained was centrifuged at 13,000 rpm for 1 h at 4°C. The supernatant containing 6-histidine tagged S. aureus FtsZ was collected and loaded onto a nickel charged HiTrap chelating column pre-equilibrated with starting buffer (20 mM sodium phosphate buffer, 0.5 M NaCl, pH 7.4). The column was then washed with 8 column volumes of the starting buffer to remove the unbound proteins, and the histidine-tagged enzyme was eluted by a linear gradient of 0−0.2 M imidazole. Fractions containing S. aureus FtsZ were pooled, buffer-exchanged with 20 mM NH4HCO3 (pH 8.0) at 4°C, lyophilized, and stored at −20°C. A stock solution of S. aureus FtsZ for the subsequent bioassay was prepared from the lyophilized powder.
The GTPase activity of recombinant S. aureus FtsZ was measured in 96-well microplates using a CytoPhos phosphate assay Biochem Kit (Cytoskeleton, USA) according to an optimized protocol and the manufacturer’s instructions. S. aureus FtsZ (3.5 µM) was preincubated with vehicle (1% DMSO) or different concentrations of each test compound in 50 mM 4-morpholinepropanesulfonic acid buffer (MOPS, pH 6.5) for 10 min at 25°C. Then 5 mM of MgCl2 and 200 mM of KCl were added. Reactions were started with the addition of 500 µM GTP and incubated at 37°C. After 30 min, the reactions were quenched by adding 100 µL of Cytophos reagent for 10 min. Inorganic phosphate was quantified by measuring the absorbance at 650 nm with a microplate reader (Bio-Rad laboratory Ltd., UK). The relative IC50 values were determined by nonlinear regression using a sigmoidal concentration-response curve in the Origin software v6. For the rate of GTPase activity of S. aureus FtsZ, different concentrations of fresh prepared FtsZ (3, 6, 9, 12, 15 µM) was preincubated with vehicle (1% DMSO) or 25 µM, 50 µM compound 2, following the same condition. The data were plotted via Origin software v6. Three independent assays were performed for all the tests.

[1] = tested on: antibiotic-susceptible and antibiotic-resistant S. aureus strains; experiment: Antimicrobial susceptibility assay, summary over S. aureus strains; assay type: cell-based; details: Staphylococcus aureus
Description: (§1) The bacterial strains S. aureus ATCC 29213, S. aureus ATCC 29247, S. aureus ATCC BAA-41, E. faecium ATCC 49624, E. faecium ATCC 700221, E. faecalis ATCC 29212, S. epidermidis ATCC 12228, E. coli ATCC 25922, and K. pneumoniae ATCC BAA-1144 used in the antimicrobial susceptibility assays were purchased from American Type Culture Collection (ATCC, USA). B. subtilis strain 168 was already available in our in-house collection. E. coli JM109 WM647 was kindly provided by Dr. W. Margolin (University of Texas-Houston Medical School). FM 4–64 was purchased from Invitrogen (Eugene, Oregon). All other chemicals and reagents were purchased from Sigma-Aldrich. Stock solutions were prepared in DMSO. The final percentage of DMSO in the assays was 1% (v/v) for all experiments.
(§2) Antimicrobial susceptibility tests were conducted in 96-well microplates using the broth microdilution procedure described in the Clinical and Laboratory Standards Institute (CLSI) guidelines. Cation-adjusted Mueller Hinton broth for S. aureus strain ATCC 29213, methicillin-resistant S. aureus strain ATCC BAA-41 and ampicillin-resistant S. aureus strain ATCC 29247, or brain heart infusion broth for antibiotic-susceptible E. faecium strain ATCC 49624 and vancomycin-resistant E. faecium strain ATCC 700221, or Mueller Hinton broth for antibiotic-susceptible strains B. subtilis strain 168, E. faecalis strain ATCC 29212 and E. coli strain ATCC 25922 were used in the assays. After incubation for 18 h at 37°C, the absorbance at 600 nm (A600) was recorded using a microplate reader (Bio-Rad laboratory Ltd., UK) and the percentage of bacterial cell inhibition with respect to vehicles (1% DMSO) was calculated. The MIC was defined as the lowest compound concentration at which the growth of bacteria was inhibited by ≥90%. Three independent assays were performed for each test.

[2] = tested on: Gram-negative strains E. coli and K. pneumoniae (expressing AmpC β-lactamase); experiment: Antimicrobial susceptibility assay, summary over Gram-negative strains; assay type: cell-based; details: Escherichia coli, read-out: MIC values
Description: as §1, §2

[3] = FtsZ 3.5 µM, 500 µM GTP, 30 min at 37°C, MOPS pH 6.5, read-out: IC50±SEM, S. aureus FtsZ GTPase activity (relative IC50)
[4] = Gram-negative strains E. coli and K. pneumoniae

COc1ccc2cc3[n+](cc2c1OC)CCc1cc2c(cc1-3)OCO2 [Berberine, Berberine chloride]
IC50 (S. aureus FtsZ): 272 ± 46.6 µM
MIC [1]: 128 to 196 µg/mL
MIC [2]: > 500 µg/mL

COc1ccc2cc3[n+](cc2c1OCCCOc1ccccc1)CCc1cc2c(cc1-3)OCO2 [Compound 1]
IC50 (S. aureus FtsZ; [3]): 56.8 ± 10.4 µM
MIC [1]: 2 to 8 µg/mL
MIC [2, 4]: 32 to 128 µg/mL

COc1ccc2cc3[n+](cc2c1OCCCOc1ccc(Cl)cc1)CCc1cc2c(cc1-3)OCO2 [Compound 2]
IC50 (S. aureus FtsZ; [3]): 37.8 ± 3.8 µM
GTPase activity of S. aureus FtsZ (S. aureus FtsZ; in the presence of 25 µM compound): 0.24 GTP/FtsZ/min
GTPase activity of S. aureus FtsZ (S. aureus FtsZ; in the presence of 50 µM compound): 0.1 GTP/FtsZ/min
MIC [1]: 2 to 8 µg/mL
MIC [2, 4]: 32 to 128 µg/mL

COc1ccc(OCCCOc2c(OC)ccc3cc4[n+](cc23)CCc2cc3c(cc2-4)OCO3)cc1 [Compound 3]
IC50 (S. aureus FtsZ; [3]): 47.3 ± 4.6 µM
MIC [1]: 2 to 8 µg/mL
MIC [2, 4]: 32 to 128 µg/mL

COc1ccc2cc3[n+](cc2c1OCCCOc1ccccc1C)CCc1cc2c(cc1-3)OCO2 [Compound 4]
IC50 (S. aureus FtsZ; [3]): 63.7 ± 4.8 µM
MIC [1]: 2 to 8 µg/mL
MIC [2, 4]: 32 to 128 µg/mL

COc1ccc2cc3[n+](cc2c1OCCCOc1ccc([N+](=O)[O-])cc1)CCc1cc2c(cc1-3)OCO2 [Compound 5]
IC50 (S. aureus FtsZ; [3]): 43.4 ± 5.2 µM
MIC [1]: 2 to 8 µg/mL
MIC [2, 4]: 32 to 128 µg/mL

COc1ccc2cc3[n+](cc2c1OCCCCOc1ccccc1)CCc1cc2c(cc1-3)OCO2 [Compound 6]
IC50 (S. aureus FtsZ; [3]): 63.5 ± 4.7 µM
MIC [1]: 2 to 8 µg/mL
MIC [2, 4]: 32 to 128 µg/mL
